Consider eleven molecules from US20230123654A1 (priority 2020, published 2023).

“And” between values parts separate entries of the source, which are not always exact repeats. Identical values can stand only once. Like-named read-outs stand apart in the source and are kept apart here.

Series [1] addresses T1, Nav1.5 (Homo sapiens, UniProt Q14524). It counts as cell-based.
Series [2] has as its target T1, Nav1.5. It is filed as cell-based. The source holds these as a separate data set.
In series [3] the target is T1, Nav1.5. It counts as cell-based. This is another data set of the same source.
Series [4] has as its system Nav1.5 transfected cells (CHO). It counts as cell-based, Chinese hamster.
The target in series [5] is T1, Nav1.5. It is filed as cell-based. The source holds these as a separate data set.
The target in a further series is Nav1.5 (SCN5A) (Homo sapiens, UniProt Q14524). It is filed as cell-based.
The target in series [6] is T2, Nav1.4 (Homo sapiens, UniProt P35499). It is filed as cell-based.
For another series, the target named is Nav1.4 F1586A (Homo sapiens, UniProt P35499, F1586A). It counts as cell-based.
The next series concerns the target Nav1.4 WWWW (Homo sapiens, UniProt P35499, F432W/I1280W/I1583W/V787W). It counts as cell-based.
The target in series [7] is T2, Nav1.4. It counts as cell-based. The source holds these as a separate data set.
A further series concerns the target Nav1.4 P1158S (Homo sapiens, UniProt P35499, P1158S). It is filed as cell-based.
In series [8] the target is Nav1.4 DIV-S6 peptide ([…]) (Homo sapiens, UniProt P35499). It counts as binding.
The subject of the next series is gramicidin-HEK cells. It counts as cell-based, human.
Series [9] has as its system gramicidin containing DC22:1PC LUVs.
In series [10] the test system is Nav1.5 transfected cells (CHO).
Series [11] has as its target T1, Nav1.5.
Another series deals with Nav. Particulars: cited from earlier work.
For series [12], the target named is Nav1.1 pore-mutant (F1763A-LA mutant) (Homo sapiens, UniProt P35498, F1774A). The note with it: cited from earlier work.
The target in series [13] is T1, Nav1.5. It is filed as cell-based. This is another data set of the same source.
The target of series [14] is T2, Nav1.4. Particulars: read-out: resting IC50 on Nav1.4; cited from earlier work.
Another series deals with TTX-sensitive channels. Particulars: cited from earlier work.

Sequence of Nav1.4 P1158S (P35499 whole entry P1158S, looked up): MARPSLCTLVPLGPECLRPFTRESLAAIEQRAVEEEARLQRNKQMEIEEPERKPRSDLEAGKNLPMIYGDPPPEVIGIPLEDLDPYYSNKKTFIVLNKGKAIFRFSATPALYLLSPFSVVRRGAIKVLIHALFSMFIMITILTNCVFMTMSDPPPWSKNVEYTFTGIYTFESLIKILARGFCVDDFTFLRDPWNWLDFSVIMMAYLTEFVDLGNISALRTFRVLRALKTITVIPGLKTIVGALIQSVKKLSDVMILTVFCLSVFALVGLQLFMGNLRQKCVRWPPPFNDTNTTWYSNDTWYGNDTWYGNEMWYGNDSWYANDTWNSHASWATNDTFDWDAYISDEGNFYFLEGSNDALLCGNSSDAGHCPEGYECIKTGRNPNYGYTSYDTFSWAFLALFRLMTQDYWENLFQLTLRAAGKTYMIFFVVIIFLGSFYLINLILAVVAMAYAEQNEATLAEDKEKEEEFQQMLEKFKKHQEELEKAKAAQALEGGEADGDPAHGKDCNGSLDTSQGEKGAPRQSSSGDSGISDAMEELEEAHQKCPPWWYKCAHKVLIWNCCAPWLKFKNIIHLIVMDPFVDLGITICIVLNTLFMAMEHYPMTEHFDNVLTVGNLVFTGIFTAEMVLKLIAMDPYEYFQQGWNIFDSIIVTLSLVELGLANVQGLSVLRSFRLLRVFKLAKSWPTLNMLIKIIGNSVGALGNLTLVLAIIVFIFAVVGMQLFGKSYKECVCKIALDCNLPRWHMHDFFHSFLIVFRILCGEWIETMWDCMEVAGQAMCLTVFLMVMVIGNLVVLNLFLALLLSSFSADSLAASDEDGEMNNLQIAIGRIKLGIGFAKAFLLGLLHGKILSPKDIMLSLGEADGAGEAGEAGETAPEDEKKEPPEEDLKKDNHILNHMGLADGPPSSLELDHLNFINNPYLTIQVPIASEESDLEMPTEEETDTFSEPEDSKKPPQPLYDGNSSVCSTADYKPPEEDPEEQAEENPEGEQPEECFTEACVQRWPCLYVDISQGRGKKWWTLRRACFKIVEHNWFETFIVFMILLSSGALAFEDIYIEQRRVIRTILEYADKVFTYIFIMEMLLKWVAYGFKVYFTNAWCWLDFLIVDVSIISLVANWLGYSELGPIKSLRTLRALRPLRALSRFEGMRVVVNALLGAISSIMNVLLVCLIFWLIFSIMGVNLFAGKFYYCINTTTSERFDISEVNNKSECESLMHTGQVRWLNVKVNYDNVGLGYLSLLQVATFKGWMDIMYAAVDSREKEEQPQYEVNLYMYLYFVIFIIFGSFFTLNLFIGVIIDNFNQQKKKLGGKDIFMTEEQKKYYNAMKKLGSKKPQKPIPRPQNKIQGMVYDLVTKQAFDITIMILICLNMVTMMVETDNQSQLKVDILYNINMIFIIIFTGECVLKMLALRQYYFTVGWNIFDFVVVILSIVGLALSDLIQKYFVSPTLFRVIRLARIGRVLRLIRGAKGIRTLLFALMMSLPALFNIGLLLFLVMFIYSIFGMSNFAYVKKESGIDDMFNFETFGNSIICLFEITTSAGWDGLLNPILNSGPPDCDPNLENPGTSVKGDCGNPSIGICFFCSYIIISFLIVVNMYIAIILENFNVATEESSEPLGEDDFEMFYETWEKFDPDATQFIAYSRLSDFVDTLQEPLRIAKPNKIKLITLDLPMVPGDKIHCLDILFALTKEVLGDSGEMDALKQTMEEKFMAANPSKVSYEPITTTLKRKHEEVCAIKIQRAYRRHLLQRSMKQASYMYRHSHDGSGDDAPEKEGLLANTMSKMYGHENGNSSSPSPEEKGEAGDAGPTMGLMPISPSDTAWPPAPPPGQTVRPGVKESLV
T1 sequence (Q14524 whole entry): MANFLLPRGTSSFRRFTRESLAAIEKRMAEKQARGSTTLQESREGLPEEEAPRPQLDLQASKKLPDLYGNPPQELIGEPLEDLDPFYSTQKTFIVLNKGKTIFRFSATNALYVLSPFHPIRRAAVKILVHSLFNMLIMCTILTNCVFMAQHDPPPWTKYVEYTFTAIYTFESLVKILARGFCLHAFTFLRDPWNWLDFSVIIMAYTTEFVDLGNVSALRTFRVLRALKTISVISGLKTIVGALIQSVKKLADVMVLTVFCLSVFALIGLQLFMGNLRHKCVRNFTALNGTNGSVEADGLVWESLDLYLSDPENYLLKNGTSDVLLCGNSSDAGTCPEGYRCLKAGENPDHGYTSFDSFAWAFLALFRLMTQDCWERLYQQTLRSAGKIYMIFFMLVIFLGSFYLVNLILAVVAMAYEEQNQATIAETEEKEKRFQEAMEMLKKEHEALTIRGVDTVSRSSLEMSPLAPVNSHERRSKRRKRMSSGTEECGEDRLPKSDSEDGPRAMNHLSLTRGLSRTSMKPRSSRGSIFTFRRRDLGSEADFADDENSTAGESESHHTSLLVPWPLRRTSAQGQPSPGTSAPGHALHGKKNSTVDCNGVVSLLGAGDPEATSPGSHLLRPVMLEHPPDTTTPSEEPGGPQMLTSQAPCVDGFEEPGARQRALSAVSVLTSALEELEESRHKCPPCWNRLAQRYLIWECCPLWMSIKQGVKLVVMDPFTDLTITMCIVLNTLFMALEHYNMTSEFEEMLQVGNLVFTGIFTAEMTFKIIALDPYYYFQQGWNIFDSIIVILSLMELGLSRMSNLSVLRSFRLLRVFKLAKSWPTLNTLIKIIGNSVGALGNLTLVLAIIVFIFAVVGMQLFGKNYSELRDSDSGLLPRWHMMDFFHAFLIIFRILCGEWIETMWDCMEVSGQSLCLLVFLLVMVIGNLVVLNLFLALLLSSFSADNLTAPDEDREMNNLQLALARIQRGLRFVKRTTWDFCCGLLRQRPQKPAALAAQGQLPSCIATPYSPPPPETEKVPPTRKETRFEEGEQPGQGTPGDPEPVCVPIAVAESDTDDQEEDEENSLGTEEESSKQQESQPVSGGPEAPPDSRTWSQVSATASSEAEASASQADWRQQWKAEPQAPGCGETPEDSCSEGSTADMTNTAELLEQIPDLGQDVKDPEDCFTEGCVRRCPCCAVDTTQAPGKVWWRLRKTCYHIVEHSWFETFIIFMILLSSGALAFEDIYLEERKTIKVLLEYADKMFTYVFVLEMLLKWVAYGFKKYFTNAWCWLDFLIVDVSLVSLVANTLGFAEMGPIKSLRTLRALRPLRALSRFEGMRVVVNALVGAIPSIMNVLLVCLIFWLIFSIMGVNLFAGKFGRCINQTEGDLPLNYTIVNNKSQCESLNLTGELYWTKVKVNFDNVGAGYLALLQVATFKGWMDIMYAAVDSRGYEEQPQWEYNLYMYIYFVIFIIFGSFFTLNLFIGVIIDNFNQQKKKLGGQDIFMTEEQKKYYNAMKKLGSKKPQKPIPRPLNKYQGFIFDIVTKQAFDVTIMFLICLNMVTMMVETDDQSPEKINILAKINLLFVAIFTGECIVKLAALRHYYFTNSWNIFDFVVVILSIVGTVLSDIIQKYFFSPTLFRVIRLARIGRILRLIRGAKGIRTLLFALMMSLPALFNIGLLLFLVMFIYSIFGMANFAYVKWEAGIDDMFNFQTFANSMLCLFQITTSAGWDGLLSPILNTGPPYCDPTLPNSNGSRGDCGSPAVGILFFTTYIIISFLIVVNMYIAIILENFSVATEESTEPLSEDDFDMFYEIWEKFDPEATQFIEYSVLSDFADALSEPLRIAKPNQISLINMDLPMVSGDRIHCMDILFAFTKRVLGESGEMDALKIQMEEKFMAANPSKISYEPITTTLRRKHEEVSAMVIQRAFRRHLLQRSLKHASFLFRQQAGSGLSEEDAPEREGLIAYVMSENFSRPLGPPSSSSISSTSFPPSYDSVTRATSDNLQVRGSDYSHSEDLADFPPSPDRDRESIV
Sequence of Nav1.4 WWWW (P35499 whole entry F432W/V787W/I1280W/I1583W, looked up): as the sequence (P35499 whole entry P1158S, looked up) above, with F432W, V787W, S1158P, I1280W, I1583W counted along it
Sequence of Nav1.4 F1586A (P35499 whole entry F1586A, looked up): as the sequence (P35499 whole entry P1158S, looked up) above, with S1158P, F1586A counted along it
T2 sequence (P35499 whole entry, looked up): as the sequence (P35499 whole entry P1158S, looked up) above, with S1158P counted along it

Take `Nc1ncnc2c1nc(Sc1ccc(Cl)cc1)n2[C@@H]1O[C@@H]2COP(=O)([O-])O[C@H]2[C@H]1O.[Na+]` [CPT-cAMP, 8-(4-chlorophenylthio) adenosine-3′,5′-cyclic monophosphate]: on Nav1.5 [1], the “GV − V1/2 (Steady state activation)” value is −25.2 ± 0.5 mV and the “GV − z (slope)” value amounted to 2.5 ± 0.1. For the same molecule, at Nav1.5 [2], the “SSFI V1/2” value is listed as −79.4 ± 1.1 mV and the “SSFI − z (slope)” value is −3.0 ± 0.1. Also, the “Percentage of persistent INa” value on Nav1.5 [3] was 2.20 ± 0.08%.

In the case of `C=C(C)[C@@H]1CCC(C)=C[C@H]1c1c(O)cc(CCCCC)cc1O` [CANNABIDIOL, 2-[(1R,6R)-3-Methyl-6-(1-methylethenyl)-2-cyclohexen-1-yl]-5-pentyl-1,3-benzenediol], the “ROS levels at high glucose” value in series [4] is “complete reduction of ROS levels”. At Nav1.5 [5], the “GV − z (slope)” value is 4.7 ± 0.9 and 3.7 ± 0.6 and 2.8 ± 0.2 and 3.1 ± 0.2. In addition, the “Percentage of persistent INa” value at Nav1.5 [3] was 0.93 ± 0.05% and 1.04 ± 0.11% and 0.88 ± 0.07%. Further, at Nav1.5 (SCN5A), the “activation and steady-state inactivation curves” value is “rescues the activation and steady-state inactivation curves”; the late sodium current result is recorded as “indistinguishable from control”. The contraction amplitude with rat diaphragm muscle is reported as ~60 % of control. Also, at Nav1.4 [6], the “Mean block of INa” value is 42.4±6.4% and ~45%. Also, on Nav1.4 F1586A, the “Mean block of INa” value is 25.3±4.8% and ~25%; the “difference between inhibition of WT vs. F1586A” value came to 1.5 fold. The “Mean block of INa” value at Nav1.4 WWWW worked out at 6.4±1.3%. At Nav1.4 [7], the “SSFI V1/2” value is −72.7±3.0 mV, the SSFI z is recorded as −2.8±0.4, the “activation V1/2” value was −14.3±4.2 mV and the activation z came out at 2.8±0.3. Moreover, on Nav1.4 P1158S (pH6.4), the “SSFI V1/2” value was −81.7±2.3 mV, the SSFI z was determined as 2.7±0.3, the “activation V1/2” value was −21.1±3.3 mV and the activation z is 2.5±0.2. Also, the “persistent currents, Percentage” value at Nav1.4 P1158S (pH6.4) was found to be 5.4±1.2%. Moreover, on Nav1.4 P1158S (pH7.4), the “SSFI V1/2” value is on record as −83.0±2.6 mV, the SSFI z worked out at 3.0±0.3, the “activation V1/2” value was −32.7±3.6 mV and the activation z is given as 2.9±0.2. Also, on Nav1.4 P1158S (pH7.4), the “persistent currents, Percentage” value was 1.0±0.2%. Besides, the “peak heat of titration” value in series [8] stood at 1022.2 ± 160.6 kcal/mol. Further, in the series on gramicidin-HEK cells, the gramicidin currents result is recorded as “slightly altered gramicidin currents”. Also, the “gramicidin signal (fluorescence quench)” value in series [9] was “alters the gramicidin signal”. Further, in series [10], the “effect on reduction in cell viability at high glucose” value was “attenuated the reduction in cell viability”. Moreover, the “Azithromycin-induced late sodium current” value at Nav1.5 [11] is “the late current was reduced”. Also, in the series with Nav, the “state-dependence in Nav inhibition” value is “approximately 10 fold”. Also, the IC50 with Nav (read-out: IC50, inactivated Nav) was ~1 µM. Moreover, the IC50 in the series on Nav (read-out: IC50, resting Nav) was ~10 µM. The “drop in potency in pore-mutant” value in [12] was ~2.5 fold.

Regarding Triton X100 [TX100], the gramicidin currents result in the series on gramicidin-HEK cells is reported as “altered the cationic gramicidin currents across all potentials”.

For the molecule `CC1(C)CC(O)CC(C)(C)N1[O]` [Tempol], the “ROS levels at high glucose” value in series [4] is reported as “complete reduction of ROS levels”. For the same molecule, the “GV − z (slope)” value on Nav1.5 [5] is 3.9 ± 0.6 and 4.4 ± 0.5 and 2.6 ± 0.2 and 4.0 ± 0.6 and 2.2 ± 0.1 and 4.3 ± 1.0 and 3.4 ± 0.3. Moreover, the “effect on reduction in cell viability at high glucose” value in [10] is recorded as “showed similar results to CANNABIDIOL”.

As for `CC[C@H]1OC(=O)[C@H](C)[C@@H](O[C@H]2C[C@@](C)(OC)[C@@H](O)[C@H](C)O2)[C@H](C)[C@@H](O[C@@H]2O[C@H](C)C[C@H](N(C)C)[C@H]2O)[C@](C)(O)C[C@@H](C)CN(C)[C@H](C)[C@@H](O)[C@]1(C)O` [Azithromycin], the “late sodium current compared to control” value on Nav1.5 [11] is “an increase in late sodium current”.

For the molecule `O=C(NCC1CCCCN1)c1cc(OCC(F)(F)F)ccc1OCC(F)(F)F` (centres unmarked) [flecainide], the “Mean block of INa” value at Nav1.4 [6] is on record as 64.6±6.0%; at Nav1.4 WWWW, 76.4±11.3%.

Turning to `OC[C@@H](O)[C@@H](O)[C@H](O)[C@H](O)CO` [Mannitol, mannitol], on Nav1.5 [5], the “GV − V1/2 (Steady state activation)” value was −39.2 ± 1.6 mV and the “GV − z (slope)” value worked out at 5.1 ± 0.8. On Nav1.5 [13], the “SSF[I] − V1/2 (Steady State Fast Inactivation)” value is given as −93.6 ± 2.3 mV and the “SSF[I] − z (slope)” value is on record as −2.1 ± 0.3. In addition, in series [10], the “cell viability, agent alone” value is reported as “no significant effect on the cell viability”.

Regarding `CCN(CC)CC(=O)Nc1c(C)cccc1C` [Lidocaine, lidocaine], the “Mean block of INa” value was 60.6±2.3% and ~60% on Nav1.4 [6]; 24.6±9.3% and ~20% on Nav1.4 F1586A; 53.6±11.7% at Nav1.4 WWWW. Further, the “difference between inhibition of WT vs. F1586A” value on Nav1.4 F1586A was found to be 3 fold. For the same molecule, the “peak heat of titration” value in [8] came out at 968.0 ± 23.4 kcal/mol. For the same molecule, the IC50 on Nav1.4 [14] was 1100 µM.

Consider `C[C@]12CC[C@@H]3c4ccc(O)cc4CC[C@H]3[C@@H]1CC[C@@H]2O` [E2, 17β-Estradiol], for which the “GV − z (slope)” value on Nav1.5 [1] was 3.1 ± 0.1 and 3.0 ± 0.1 and 2.4 ± 0.1 and 3.5 ± 0.1 and 2.8 ± 0.1 and 3.6 ± 0.1 and 3.4 ± 0.2. On Nav1.5 [3], the “Percentage of persistent INa” value was 0.85 ± 0.06% and 0.91 ± 0.06% and 1.92 ± 0.09% and 0.89 ± 0.06% and 1.73 ± 0.03% and 0.95 ± 0.09% and 0.90 ± 0.11%.

As for `CCCCCCCCCCCCCC(=O)O[C@@H]1[C@@H](C)[C@@]2(O)[C@@H](C=C(CO)C[C@]3(O)C(=O)C(C)=C[C@@H]23)[C@@H]2C(C)(C)[C@]12OC(C)=O` [PMA], at Nav1.5 [1], the “GV − V1/2 (Steady state activation)” value is listed as −22.6 ± 1.6 mV and the “GV − z (slope)” value is 2.5 ± 0.1. Further, on Nav1.5 [2], the “SSFI V1/2” value is −76.4 ± 1.7 mV and the “SSFI − z (slope)” value is reported as −2.9 ± 0.2. The “Percentage of persistent INa” value at Nav1.5 [3] is reported as 2.18 ± 0.06%.

Regarding `NC1=N[C@H](O)[C@H]2[C@H]3O[C@]4(O)O[C@@H]([C@@H](O)[C@@]2(N1)[C@@H]4O)[C@]3(O)CO` [TTX, tetrodotoxin], the contraction amplitude in the series with rat diaphragm muscle was ~20 % of control. For the same molecule, the half-inhibitory concentration (IC50) with TTX-sensitive channels is 0.01 to 0.03 µM.
